Test [1] deals with Fusobacterium nucleatum. The test can be described thus: Inhibition of Fusobacterium nucleatum ATCC 25586 recombinant MGL Y56F mutant expressed in Escherichia coli BL21 (DE3) assessed as decrease in signal intensity by measuring recovery ratio by 19F NMR based competition assay relative to wild type. The arrangement: concentration or dose not given beside the values.
For test [2], the system named is Fusobacterium nucleatum. Put plainly: Inhibition of Fusobacterium nucleatum ATCC 25586 recombinant MGL Y111F mutant expressed in Escherichia coli BL21 (DE3) assessed as decrease in signal intensity by measuring recovery ratio by 19F NMR based competition assay relative to wild type. The arrangement: concentration or dose not given beside the values.
Test [3] has as its target T1, L-methionine gamma-lyase (Fusobacterium nucleatum subsp. nucleatum) (UniProt Q8RDT4).
T1 sequence (whole entry): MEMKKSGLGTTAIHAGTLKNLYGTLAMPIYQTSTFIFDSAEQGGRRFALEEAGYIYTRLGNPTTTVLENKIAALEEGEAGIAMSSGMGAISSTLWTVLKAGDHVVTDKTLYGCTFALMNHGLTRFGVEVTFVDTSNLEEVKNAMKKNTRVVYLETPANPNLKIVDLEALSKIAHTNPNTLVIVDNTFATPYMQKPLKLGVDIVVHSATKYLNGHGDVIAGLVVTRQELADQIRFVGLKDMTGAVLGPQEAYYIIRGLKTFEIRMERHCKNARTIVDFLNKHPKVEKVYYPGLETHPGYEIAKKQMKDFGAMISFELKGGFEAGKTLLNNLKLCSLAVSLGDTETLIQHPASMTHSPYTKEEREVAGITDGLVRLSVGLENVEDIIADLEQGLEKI
The test can be described thus: Inhibition of Fusobacterium nucleatum ATCC 25586 recombinant wild type MGL expressed in Escherichia coli BL21 (DE3) assessed as decrease in signal intensity by 19F NMR based competition assay relative to control. The arrangement: concentration or dose not given beside the values.

The target in test [4] is T1, L-methionine gamma-lyase (Fusobacterium nucleatum subsp. nucleatum). The test can be described thus: Inhibition of Fusobacterium nucleatum ATCC 25586 recombinant wild type MGL expressed in Escherichia coli BL21 (DE3) assessed as formation of 2-ketobutyrate using L-methionine as substrate by enzymatic assay. Further details: concentration or dose not given beside the values. Particulars: concentration not given here.

For test [5], the system named is Fusobacterium nucleatum. Put plainly: Inhibition of Fusobacterium nucleatum ATCC 25586 recombinant MGL R373K mutant expressed in Escherichia coli BL21 (DE3) assessed as decrease in signal intensity by measuring recovery ratio by 19F NMR based competition assay relative to wild type. The arrangement: concentration or dose not given beside the values.
In test [6] the test system is Fusobacterium nucleatum. Put plainly: Inhibition of Fusobacterium nucleatum ATCC 25586 recombinant MGL K238A mutant expressed in Escherichia coli BL21 (DE3) assessed as decrease in signal intensity by measuring recovery ratio by 19F NMR based competition assay relative to wild type. Further details: concentration or dose not given beside the values.
In test [7] the test system is Fusobacterium nucleatum. The test can be described thus: Inhibition of Fusobacterium nucleatum ATCC 25586 recombinant MGL R373A mutant expressed in Escherichia coli BL21 (DE3) assessed as decrease in signal intensity by measuring recovery ratio by 19F NMR based competition assay relative to wild type. Further details: scale not given: the % may be the effect or the level left.

The test system of test [8] is Fusobacterium nucleatum. Put plainly: Inhibition of Fusobacterium nucleatum ATCC 25586 recombinant MGL R58A mutant expressed in Escherichia coli BL21 (DE3) assessed as decrease in signal intensity by measuring recovery ratio by 19F NMR based competition assay relative to wild type. Further details: scale not given: the % may be the effect or the level left.
In test [9] the test system is Fusobacterium nucleatum. Put plainly: Inhibition of Fusobacterium nucleatum ATCC 25586 recombinant MGL R58K mutant expressed in Escherichia coli BL21 (DE3) assessed as decrease in signal intensity by measuring recovery ratio by 19F NMR based competition assay relative to wild type. Further details: scale not given: the % may be the effect or the level left.
Test [10] deals with Fusobacterium nucleatum. The test can be described thus: Inhibition of Fusobacterium nucleatum ATCC 25586 recombinant MGL C113S mutant expressed in Escherichia coli BL21 (DE3) assessed as decrease in signal intensity by measuring recovery ratio by 19F NMR based competition assay relative to wild type. Further details: scale not given: the % may be the effect or the level left.

The record followed here is ChEMBL document CHEMBL4837259, “Comprehensive Approach of 19F Nuclear Magnetic Resonance, Enzymatic, and In Silico Methods for Site-Specific Hit Selection and Validation of Fragment Molecules that Inhibit Methionine γ-Lyase Activity” (J Med Chem, 2021).

The source made the active and inactive calls. The calls are words filed in the database; no cut-off is given here.

For the compound `CC(C)(C)OC(=O)N1CCC(C(=O)O)(c2ccc(C(F)(F)F)cc2)CC1`, the Activity was determined as 80% with Fusobacterium nucleatum [1]; 96% in test [3]; 50% with Fusobacterium nucleatum [6]; 50% in the test on Fusobacterium nucleatum [9]; 50% with Fusobacterium nucleatum [10]. Also, the result in the test with Fusobacterium nucleatum [2], with Fusobacterium nucleatum [5], in the test on Fusobacterium nucleatum [7] and with Fusobacterium nucleatum [8] was Active. The inhibition in test [4] came to 12.9%.
`O=C(O)c1ccc(OC(F)F)nc1`: the Activity with Fusobacterium nucleatum [1] stood at 80%; in test [3], 78%; in the test on Fusobacterium nucleatum [7], 80%; in the test with Fusobacterium nucleatum [8], 50%; with Fusobacterium nucleatum [9], 50%. The outcome in the test with Fusobacterium nucleatum [2], in the test on Fusobacterium nucleatum [5], in the test with Fusobacterium nucleatum [6] and with Fusobacterium nucleatum [10] was Active. Further, the inhibition in test [4] was 12.6%.
In the case of `CC(C)(C)OC(=O)N1CCC(CN)(Cc2ccccc2F)CC1`, the Activity in the test on Fusobacterium nucleatum [1] stood at 80%; in test [3] it was 63%; in the test with Fusobacterium nucleatum [9], 50%; with Fusobacterium nucleatum [10] it was 80%. For the same compound, the outcome with Fusobacterium nucleatum [2], with Fusobacterium nucleatum [6] and in the test on Fusobacterium nucleatum [7] was inactive. Besides, the inhibition in [4] was determined as 30.1%. Further, the outcome in the test on Fusobacterium nucleatum [5] and with Fusobacterium nucleatum [8] was Active.
In the case of `O=C(O)c1cc(F)c(OCC2CC2)c(F)c1`, the Activity stood at 80% with Fusobacterium nucleatum [1]; 80% in the test with Fusobacterium nucleatum [2]; 77% in [3]; 80% in the test with Fusobacterium nucleatum [7]; 80% in the test with Fusobacterium nucleatum [8]; 50% with Fusobacterium nucleatum [9]. Also, the inhibition in test [4] was determined as 9.5%. Further, the result in the test on Fusobacterium nucleatum [5], with Fusobacterium nucleatum [6] and with Fusobacterium nucleatum [10] was Active.
On to `O=C(O)c1ccnc(OC(F)F)c1`, for which the Activity came to 80% with Fusobacterium nucleatum [1]; 67% in [3]; 50% with Fusobacterium nucleatum [5]; 80% in the test on Fusobacterium nucleatum [7]; 80% in the test on Fusobacterium nucleatum [8]; 80% in the test with Fusobacterium nucleatum [9]. Moreover, in the test on Fusobacterium nucleatum [10], the Activity came to 50%. The result in the test on Fusobacterium nucleatum [2] and in the test on Fusobacterium nucleatum [6] was Active. The inhibition in [4] worked out at 1.5%.
As for `Cc1cccc2c(C(C(=O)O)C(F)(F)F)c[nH]c12` (configuration not stated), the Activity in the test on Fusobacterium nucleatum [1] worked out at 80%; with Fusobacterium nucleatum [2], 50%; in test [3] it was 44%; in the test on Fusobacterium nucleatum [6], 50%; in the test with Fusobacterium nucleatum [7], 50%; in the test with Fusobacterium nucleatum [8], 80%. Further, in the test with Fusobacterium nucleatum [9], the Activity amounted to 50%. For the same compound, in [4], the inhibition is -5.3%. The outcome in the test on Fusobacterium nucleatum [5] was Active. In addition, the outcome in the test on Fusobacterium nucleatum [10] was inactive.
Turning to `O=C(O)c1cc(C(F)(F)F)nn1-c1ccccc1`, the Activity in the test with Fusobacterium nucleatum [1] is 80%; in the test with Fusobacterium nucleatum [2], 80%; in test [3], 49%; with Fusobacterium nucleatum [7] it was 50%; in the test on Fusobacterium nucleatum [8], 80%; in the test on Fusobacterium nucleatum [9] it was 80%. Further, the Activity in the test on Fusobacterium nucleatum [10] worked out at 50%. Also, the inhibition in test [4] stood at 23.9%. The result in the test on Fusobacterium nucleatum [5] and in the test with Fusobacterium nucleatum [6] was Active.
As to `Cc1ccc2[nH]cc(C(C(=O)O)C(F)(F)F)c2c1` (configuration not stated), the Activity in the test on Fusobacterium nucleatum [1] was 80%; in the test on Fusobacterium nucleatum [2], 80%; in test [3], 48%; with Fusobacterium nucleatum [7], 50%; with Fusobacterium nucleatum [8], 80%; in the test on Fusobacterium nucleatum [9] it was 80%. In addition, the inhibition in test [4] came out at 9.3%. For the same compound, the result with Fusobacterium nucleatum [5] and in the test with Fusobacterium nucleatum [6] was Active. In the test on Fusobacterium nucleatum [10], the outcome was inactive.
In the case of `Fc1cccc(-c2nnc3ccc(Br)cn23)c1`, the Activity in test [3] was found to be 89%. Also, the inhibition in [4] was found to be 7.2%.
